The values that follow come from US8148373B2, “Compounds” (AstraZeneca AB, priority 2008, dated 2012).

SMILES strings stand for the structures. Counter-ions that a name gives are not always drawn.

Assay [1] deals with T1, human muscarinic acetylcholine M3 receptor (M3-ACh) (Homo sapiens, UniProt P20309).
T1 construct: expressed in transfected cells; host or cells: CHO-K1 (Chinese Hamster Ovary) cell membranes
The assay can be described thus: Muscarinic 3 Receptor Binding Assay ([3H]NMS competition, SPA). Particulars: [3H]NMS 0.1 nM, CHO-K1 cell membranes, 16 hours at room temperature; read-out: M3 pIC50 (converted). The method in brief:
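Competition SPA binding of 0.1 nM [3H]NMS (quarter Kd) to membranes from CHO-K1 cells expressing human M3, in 20 mM HEPES pH 7.4, 5 mM MgCl2, 1% DMSO. Incubated 16 h at room temperature; non-specific binding with 1 µM atropine. pIC50 from 50% reduction of specific binding.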

Assay [2] deals with T2, Adrenergic β2 (H292 cells) (Homo sapiens, UniProt P07550).
T2 construct: endogenous in cells; host or cells: H292 cells
The assay can be described thus: Assay for Adrenergic β2 Mediated cAMP Production (concentration response, AlphaScreen cAMP detection). The class given is cell-based. Particulars: for EC50: cAMP production, 60 minutes at room temperature, 300 μM rolipram, read-out: β2 pEC50 (converted); for β2 Intrinsic activity: fraction relative to the maximum activity determined for formoterol. In short, it runs like this: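 H292 cells plated overnight, pre-treated with rolipram (300 μM final) 10 min, then compound 60 min at room temperature in HBSS/10 mM HEPES pH7.4/5 mM glucose, 1% DMSO. Lysate cAMP read by AlphaScreen against a cAMP standard curve; 4-parameter fit gives pEC50 and intrinsic activity as fraction of formoterol maximum.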
For orientation: Alpha assays give light when donor and acceptor beads are brought close together.

T1 sequence (P20309 whole entry): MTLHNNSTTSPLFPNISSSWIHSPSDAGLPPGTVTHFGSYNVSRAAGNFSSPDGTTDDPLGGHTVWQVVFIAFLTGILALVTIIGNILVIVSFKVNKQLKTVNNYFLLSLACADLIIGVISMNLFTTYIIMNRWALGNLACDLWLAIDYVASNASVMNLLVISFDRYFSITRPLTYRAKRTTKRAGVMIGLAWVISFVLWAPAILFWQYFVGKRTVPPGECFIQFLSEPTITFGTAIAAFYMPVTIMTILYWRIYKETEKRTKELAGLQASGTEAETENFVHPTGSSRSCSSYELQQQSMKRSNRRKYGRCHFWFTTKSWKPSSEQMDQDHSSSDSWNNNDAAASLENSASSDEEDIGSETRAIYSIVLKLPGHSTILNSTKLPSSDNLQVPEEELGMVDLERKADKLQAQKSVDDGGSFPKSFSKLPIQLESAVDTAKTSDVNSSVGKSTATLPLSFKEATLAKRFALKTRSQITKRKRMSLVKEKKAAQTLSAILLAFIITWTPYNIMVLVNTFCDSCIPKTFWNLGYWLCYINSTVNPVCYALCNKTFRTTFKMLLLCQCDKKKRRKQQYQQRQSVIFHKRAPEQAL
T2 sequence (P07550 whole entry): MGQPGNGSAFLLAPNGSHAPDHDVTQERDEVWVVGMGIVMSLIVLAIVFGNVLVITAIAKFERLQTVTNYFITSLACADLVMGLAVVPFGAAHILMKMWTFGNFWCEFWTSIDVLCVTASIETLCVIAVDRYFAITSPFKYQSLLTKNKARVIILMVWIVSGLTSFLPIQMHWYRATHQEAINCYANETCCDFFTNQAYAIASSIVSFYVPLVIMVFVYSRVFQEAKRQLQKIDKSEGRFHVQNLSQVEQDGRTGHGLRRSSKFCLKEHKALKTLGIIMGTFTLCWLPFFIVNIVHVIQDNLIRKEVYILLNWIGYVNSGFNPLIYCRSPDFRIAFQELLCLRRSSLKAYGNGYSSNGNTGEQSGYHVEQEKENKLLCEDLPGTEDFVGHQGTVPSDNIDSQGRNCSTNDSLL

Turning to `CC(CCCCCCCCN1CCC2(CC1)CN(C(=O)c1csc(C(C)C)n1)CCO2)NC[C@H](O)c1ccc(O)c2[nH]c(=O)sc12` (stereo partly drawn) [Example 280, (R)-4-Hydroxy-7-(1-hydroxy-2-(10-(4-(2-isopropylthiazole-4-carbonyl)-1-oxa-4,9-diazaspiro[5.5]undecan-9-yl)decan-2-ylamino)ethyl)benzo[d]thiazol-2(3H)-one formate], the IC50 in assay [1] was 0.794 nM. In assay [2], the EC50 was 5.01 nM and the “β2 Intrinsic activity” value stood at 1.2.
The matching figures for `CC(C)c1nc(C(=O)N2CCOC3(CCN(CCCCCC(C)(C)CNC[C@H](O)c4ccc(O)c5[nH]c(=O)sc45)CC3)C2)cs1` [Example 102, (R)-4-Hydroxy-7-(1-hydroxy-2-(7-(4-(2-isopropylthiazole-4-carbonyl)-1-oxa-4,9-diazaspiro[5.5]undecan-9-yl)-2,2-dimethylheptylamino)ethyl)benzo[d]thiazol-2(3H)-one formate]: 1 nM, 200 nM and 0.9.
For the compound `Cc1ccc(C(=O)N2CCOC3(CCN(Cc4ccc(F)c(CCNC[C@H](O)c5ccc(O)c6[nH]c(=O)ccc56)c4F)CC3)C2)s1` [Example 35, (R)-5-(2-(2,6-Difluoro-3-((4-(5-methylthiophene-2-carbonyl)-1-oxa-4,9-diazaspiro[5.5]undecan-9-yl)methyl)phenethylamino)-1-hydroxyethyl)-8-hydroxyquinolin-2(1H)-one ditrifluoroacetate], in assay [1], the IC50 is 25.1 nM. In assay [2], the EC50 was 12.6 nM and the “β2 Intrinsic activity” value came to 1.
With `Cc1sc(C(C)C)nc1C(=O)N1CCOC2(CCN(Cc3cccc(CCNC[C@H](O)c4ccc(O)c5[nH]c(=O)sc45)c3F)CC2)C1` [Example 69, (R)-7-(2-(2-Fluoro-3-((4-(2-isopropyl-5-methylthiazole-4-carbonyl)-1-oxa-4,9-diazaspiro[5.5]undecan-9-yl)methyl)phenethylamino)-1-hydroxyethyl)-4-hydroxybenzo[d]thiazol-2(3H)-one ditrifluoroacetate], the IC50 in assay [1] is 20 nM. Also, in assay [2], the EC50 is 15.8 nM and the “β2 Intrinsic activity” value is reported as 0.9.
As for `CC(C)c1nc(C(=O)N2CCOC3(CCN(Cc4cc(CCNC[C@H](O)c5ccc(O)c6[nH]c(=O)sc56)cs4)CC3)C2)cs1` [Example 36, (R)-4-Hydroxy-7-(1-hydroxy-2-(2-(5-((4-(2-isopropylthiazole-4-carbonyl)-1-oxa-4,9-diazaspiro[5.5]undecan-9-yl)methyl)thiophen-3-yl)ethylamino)ethyl)benzo[d]thiazol-2(3H)-one ditrifluoroacetate], the IC50 in assay [1] was 0.501 nM. Also, in assay [2], the EC50 was 6.31 nM and the “β2 Intrinsic activity” value was 1.
The matching figures for `Cc1nc(C(=O)N2CCOC3(CCN(Cc4cccc(CCNC[C@H](O)c5ccc(O)c6[nH]c(=O)sc56)c4)CC3)CC2)cs1` [Example 89, (R)-4-Hydroxy-7-(1-hydroxy-2-(3-((10-(2-methylthiazole-4-carbonyl)-7-oxa-3,10-diazaspiro[5.6]dodecan-3-yl)methyl)phenethylamino)ethyl)benzo[d]thiazol-2(3H)-one ditrifluoroacetate]: 31.6 nM, 1.58 nM and 1.
The corresponding values for `Cc1ccc(C(=O)N2CCOC3(CN(Cc4cccc(CCNC[C@H](O)c5ccc(O)c6[nH]c(=O)sc56)c4)C3)C2)s1` [Example 33, (R)-4-Hydroxy-7-(1-hydroxy-2-(3-((8-(5-methylthiophene-2-carbonyl)-5-oxa-2,8-diazaspiro[3.5]nonan-2-yl)methyl)phenethylamino)ethyl)benzo[d]thiazol-2(3H)-one ditrifluoroacetate] are 12.6 nM, 6.31 nM and 1.
The corresponding values for `CC(C)c1nc(C(=O)N2CCOC3(CCN(Cc4cccc(CCNC[C@H](O)c5ccc(O)c6[nH]c(=O)sc56)c4Cl)CC3)C2)cs1` [Example 80, (R)-7-(2-(2-Chloro-3-((4-(2-isopropylthiazole-4-carbonyl)-1-oxa-4,9-diazaspiro[5.5]undecan-9-yl)methyl)phenethylamino)-1-hydroxyethyl)-4-hydroxybenzo[d]thiazol-2(3H)-one ditrifluoroacetate] are 5.01 nM, 6.31 nM and 0.8.
For the compound `CC(C)c1nc(C(=O)N2CCOC3(CCN(Cc4cccc(C(C)(C)CNC[C@H](O)c5ccc(O)c6[nH]c(=O)ccc56)c4F)CC3)C2)cs1` [Example 92, (R)-5-(2-(2-(2-Fluoro-3-((4-(2-isopropylthiazole-4-carbonyl)-1-oxa-4,9-diazaspiro[5.5]undecan-9-yl)methyl)phenyl)-2-methylpropylamino)-1-hydroxyethyl)-8-hydroxyquinolin-2(1H)-one ditrifluoroacetate], the IC50 in assay [1] was 126 nM. Moreover, in assay [2], the EC50 is 794 nM and the “β2 Intrinsic activity” value is 0.9.
For `Cc1cc(C(=O)N2CCOC3(CCN(CCOc4ccc(CNC[C@H](O)c5ccc(O)c6[nH]c(=O)sc56)cc4)CC3)C2)cs1` [Example 104, (R)-4-Hydroxy-7-(1-hydroxy-2-(4-(2-(4-(5-methylthiophene-3-carbonyl)-1-oxa-4,9-diazaspiro[5.5]undecan-9-yl)ethoxy)benzylamino)ethyl)benzo[d]thiazol-2(3H)-one formate], in assay [1], the IC50 is 3.16 nM. In assay [2], the EC50 was 79.4 nM and the “β2 Intrinsic activity” value is given as 0.9.
The corresponding values for `Cc1ccc(C(=O)N2CCOC3(CCN(Cc4cc(CCNC[C@H](O)c5ccc(O)c6[nH]c(=O)sc56)ccc4F)CC3)C2)s1` [Example 29, (R)-7-(2-(4-Fluoro-3-((4-(5-methylthiophene-2-carbonyl)-1-oxa-4,9-diazaspiro[5.5]undecan-9-yl)methyl)phenethylamino)-1-hydroxyethyl)-4-hydroxybenzo[d]thiazol-2(3H)-one ditrifluoroacetate] are 3.98 nM, 1.58 nM and 1.
Regarding `COC(=O)c1ccc(C(=O)N2CCOC3(CCN(Cc4cccc(CCNC[C@H](O)c5ccc(O)c6[nH]c(=O)sc56)c4)CC3)C2)s1` [Example 30, (R)-methyl 5-(9-(3-(2-(2-hydroxy-2-(4-hydroxy-2-oxo-2,3-dihydrobenzo[d]thiazol-7-yl)ethylamino)ethyl)benzyl)-1-oxa-4,9-diazaspiro[5.5]undecane-4-carbonyl)thiophene-2-carboxylate ditrifluoroacetate], the IC50 in assay [1] was 15.8 nM. Further, in assay [2], the EC50 was 2.51 nM and the “β2 Intrinsic activity” value was 0.9.
The matching figures for `Cc1nc(C(=O)N2CCOC3(CCN(Cc4cccc(CCNCC(O)c5ccc(O)c6c5OCC(=O)N6)c4)CC3)C2)cs1` (single isomer, unassigned; isomer 2) [Example 13, 5-Hydroxy-8-(1-hydroxy-2-(3-((4-(2-methylthiazole-4-carbonyl)-1-oxa-4,9-diazaspiro[5.5]undecan-9-yl)methyl)phenethylamino)ethyl)-2H-benzo[b][1,4]oxazin-3(4H)-one ditrifluoroacetate, Isomer 2]: 0.0794 nM, 39.8 nM and 0.8.
The matching figures for `Cc1nc(C(=O)N2CCOC3(CCN(CCOc4ccc(CCNC[C@H](O)c5ccc(O)c6[nH]c(=O)sc56)cc4)CC3)C2)cs1` [Example 3, (R)-4-Hydroxy-7-(1-hydroxy-2-(4-(2-(4-(2-methylthiazole-4-carbonyl)-1-oxa-4,9-diazaspiro[5.5]undecan-9-yl)ethoxy)phenethylamino)ethyl)benzo[d]thiazol-2(3H)-one dihydrochloride]: 1 nM, 7.94 nM and 1.0.
The corresponding values for `Cc1nc(C(=O)N2CCOC3(CCN(CCc4ccc(CCNC[C@H](O)c5ccc(O)c6[nH]c(=O)sc56)s4)CC3)C2)cs1` [Example 4, (R)-4-Hydroxy-7-(1-hydroxy-2-(2-(5-(2-(4-(2-methylthiazole-4-carbonyl)-1-oxa-4,9-diazaspiro[5.5]undecan-9-yl)ethyl)thiophen-2-yl)ethylamino)ethyl)benzo[d]thiazol-2(3H)-one ditrifluoroacetate] are 1.26 nM, 15.8 nM and 0.9.
With `CC(C)c1nc(C(=O)N2CCOC3(CCN(Cc4ccc(C(F)(F)F)c(CCNC[C@H](O)c5ccc(O)c6[nH]c(=O)ccc56)c4)CC3)C2)cs1` [Example 273, (R)-8-Hydroxy-5-(1-hydroxy-2-(5-((4-(2-isopropylthiazole-4-carbonyl)-1-oxa-4,9-diazaspiro[5.5]undecan-9-yl)methyl)-2-(trifluoromethyl)phenethylamino)ethyl)quinolin-2(1H)-one ditrifluoroacetate], in assay [1], the IC50 is 79.4 nM. In assay [2], the EC50 was 398 nM and the “β2 Intrinsic activity” value is on record as 0.5.
Take `CCc1cc(C(=O)N2CC(C)(C)OC3(CCN(Cc4cccc(CCNC[C@H](O)c5ccc(O)c6[nH]c(=O)ccc56)c4)CC3)C2)cs1` [Example 272, (R)-5-(2-(3-((4-(5-ethylthiophene-3-carbonyl)-2,2-dimethyl-1-oxa-4,9-diazaspiro[5.5]undecan-9-yl)methyl)phenethylamino)-1-hydroxyethyl)-8-hydroxyquinolin-2(1H)-one ditrifluoroacetate]: the IC50 in assay [1] was 794 nM. Moreover, in assay [2], the EC50 was 10 nM and the “β2 Intrinsic activity” value came to 1.
